Measured values: patent US10582709B2, “Butyrolactones as herbicides” (FMC Corporation, priority 2015, dated 2020)

Assays:
Format in all cases: in vivo
[1] = test system: pigweed (Amaranthus retroflexus); test: Test A preemergence, pigweed; conditions: visual rating after approx. 10 d, 0 to 100 scale, 0 no effect, 100 complete control
Source text: (§1) Seeds of plant species selected from barnyardgrass (Echinochloa crus-galli), crabgrass (large crabgrass, Digitaria sanguinalis), kochia (Kochia scoparia), ragweed (common ragweed, Ambrosia elatior), morningglory (Ipomoea spp.), velvetleaf (Abutilon theophrasti), ryegrass, Italian (Italian ryegrass, Lolium multiflorum), foxtail, giant (giant foxtail, Setaria faberii), wheat (Triticum aestivum), corn (Zea mays), and pigweed (Amaranthus retroflexus), were planted into a blend of loam soil and sand and treated preemergence with a directed soil spray using test chemicals formulated in a non-phytotoxic solvent mixture which included a surfactant. At the same time, plants selected from these crop and weed species and also blackgrass (Alopecurus myosuroides), and galium (catchweed bedstraw, Galium aparine), were planted in pots containing the same blend of loam soil and sand and treated with postemergence applications of test chemicals formulated in the same manner. Plants ranged in height from 2 to 10 cm and were in the one- to two-leaf stage for the postemergence treatment. Treated plants and untreated controls were maintained in a greenhouse for approximately 10 d, after which time all treated plants were compared to untreated controls and visually evaluated for injury. Plant response ratings, summarized in Table A, are based on a 0 to 100 scale where 0 is no effect and 100 is complete control. A dash (-) response means no test result.

kochia (Kochia scoparia) [2] = test: Test A postemergence, kochia; conditions: visual rating after approx. 10 d, 0 to 100 scale, 0 no effect, 100 complete control
Source text: as §1

[3] = test system: ryegrass, Italian (Italian ryegrass, Lolium multiflorum); test: Test A preemergence, Italian ryegrass; conditions: visual rating after approx. 10 d, 0 to 100 scale, 0 no effect, 100 complete control
Source text: as §1

[4] = test system: ryegrass, Italian (Italian ryegrass, Lolium multiflorum); test: Test A postemergence, Italian ryegrass; conditions: visual rating after approx. 10 d, 0 to 100 scale, 0 no effect, 100 complete control
Source text: as §1

[5] = test system: ragweed (common ragweed, Ambrosia elatior); test: Test A postemergence, ragweed; conditions: visual rating after approx. 10 d, 0 to 100 scale, 0 no effect, 100 complete control
Source text: as §1

[6] = test system: foxtail, giant (giant foxtail, Setaria faberii); test: Test A postemergence, giant foxtail; conditions: visual rating after approx. 10 d, 0 to 100 scale, 0 no effect, 100 complete control
Source text: as §1

kochia (Kochia scoparia) [7] = test: Test A preemergence, kochia; conditions: visual rating after approx. 10 d, 0 to 100 scale, 0 no effect, 100 complete control
Source text: as §1

[8] = test system: blackgrass (Alopecurus myosuroides); test: Test A postemergence, blackgrass; conditions: visual rating after approx. 10 d, 0 to 100 scale, 0 no effect, 100 complete control
Source text: as §1

[9] = test system: galium (catchweed bedstraw, Galium aparine); test: Test A postemergence, galium; conditions: visual rating after approx. 10 d, 0 to 100 scale, 0 no effect, 100 complete control
Source text: as §1

[10] = test system: foxtail, giant (giant foxtail, Setaria faberii); test: Test A preemergence, giant foxtail; conditions: visual rating after approx. 10 d, 0 to 100 scale, 0 no effect, 100 complete control
Source text: as §1

rice (Oryza sativa) = test: Test B flooded paddy test, rice; conditions: applied to paddy water at 2-leaf stage, 13 to 15 d, scale 0 no effect to 100 complete control
Procedure: (§2) Plant species in the flooded paddy test selected from rice (Oryza sativa), sedge, umbrella (small-flower umbrella sedge, Cyperus difformis), ducksalad (Heteranthera limosa), and barnyardgrass (Echinochloa crus-galli) were grown to the 2-leaf stage for testing. At time of treatment, test pots were flooded to 3 cm above the soil surface, treated by application of test compounds directly to the paddy water, and then maintained at that water depth for the duration of the test. Treated plants and controls were maintained in a greenhouse for 13 to 15 d, after which time all species were compared to controls and visually evaluated. Plant response ratings, summarized in Table B, are based on a scale of 0 to 100 where 0 is no effect and 100 is complete control. A dash (-) response means no test result.

[11] = test system: ducksalad (Heteranthera limosa); test: Test B flooded paddy test, ducksalad; conditions: applied to paddy water at 2-leaf stage, 13 to 15 d, scale 0 no effect to 100 complete control
Procedure: as §2

[12] = test system: barnyardgrass (Echinochloa crus-galli); test: Test B flooded paddy test, barnyardgrass; conditions: applied to paddy water at 2-leaf stage, 13 to 15 d, scale 0 no effect to 100 complete control
Procedure: as §2

[13] = test system: pigweed (Amaranthus retroflexus); test: Test A postemergence, pigweed; conditions: visual rating after approx. 10 d, 0 to 100 scale, 0 no effect, 100 complete control
Source text: as §1

corn (Zea mays) = test: Test A postemergence, corn; conditions: visual rating after approx. 10 d, 0 to 100 scale, 0 no effect, 100 complete control
Source text: as §1

[14] = test system: ragweed (common ragweed, Ambrosia elatior); test: Test A preemergence, ragweed; conditions: visual rating after approx. 10 d, 0 to 100 scale, 0 no effect, 100 complete control
Source text: as §1

[15] = test system: sedge, umbrella (small-flower umbrella sedge, Cyperus difformis); test: Test B flooded paddy test, umbrella sedge; conditions: applied to paddy water at 2-leaf stage, 13 to 15 d, scale 0 no effect to 100 complete control
Procedure: as §2

[16] = test system: wheat (Triticum aestivum); test: Test A postemergence, wheat; conditions: visual rating after approx. 10 d, 0 to 100 scale, 0 no effect, 100 complete control
Source text: as §1

[17] = test system: barnyardgrass (Echinochloa crus-galli); test: Test A preemergence, barnyardgrass; conditions: visual rating after approx. 10 d, 0 to 100 scale, 0 no effect, 100 complete control
Source text: as §1

[18] = test system: barnyardgrass (Echinochloa crus-galli); test: Test A postemergence, barnyardgrass; conditions: visual rating after approx. 10 d, 0 to 100 scale, 0 no effect, 100 complete control
Source text: as §1

| SMILES | Plant response rating, Pigweed ([1]; 125 g ai/ha) | Plant response rating, Pigweed ([1]; 500 g ai/ha) | Plant response rating, Kochia (kochia (Kochia scoparia) [2]; 125 g ai/ha) | Plant response rating, Kochia (kochia (Kochia scoparia) [2]; 500 g ai/ha) | Plant response rating, Ryegrass, Italian ([3]; 125 g ai/ha) | Plant response rating, Ryegrass, Italian ([3]; 500 g ai/ha) | Plant response rating, Ryegrass, Italian ([4]; 125 g ai/ha) | Plant response rating, Ryegrass, Italian ([4]; 500 g ai/ha) | Plant response rating, Ragweed ([5]; 125 g ai/ha) | Plant response rating, Ragweed ([5]; 500 g ai/ha) | Plant response rating, Foxtail, Giant ([6]; 125 g ai/ha) | Plant response rating, Foxtail, Giant ([6]; 500 g ai/ha) | Plant response rating, Kochia (kochia (Kochia scoparia) [7]; 125 g ai/ha) | Plant response rating, Kochia (kochia (Kochia scoparia) [7]; 500 g ai/ha) | Plant response rating, Blackgrass ([8]; 125 g ai/ha) | Plant response rating, Blackgrass ([8]; 500 g ai/ha) | Plant response rating, Galium ([9]; 125 g ai/ha) | Plant response rating, Galium ([9]; 500 g ai/ha) | Plant response rating, Foxtail, Giant ([10]; 125 g ai/ha) | Plant response rating, Foxtail, Giant ([10]; 500 g ai/ha) | also measured |
| --- | --- | --- | --- | --- | --- | --- | --- | --- | --- | --- | --- | --- | --- | --- | --- | --- | --- | --- | --- | --- | --- |
| O=C(Nc1ccccc1C(F)(F)F)C1C(=O)OCC1c1ccc(F)c(C(F)(F)F)c1 (racemic) [Compound 17] | 0 | 0 | 0 | 0 | 0 | 0 | 0 | 0 | 0 | 0 | 0 | 20 | 0 | 0 | 0 | 0 | 0 | 0 | 20 | 60 | Plant response rating, Flood, Rice (rice (Oryza sativa); 500 g ai/ha): 0; Plant response rating, Flood, Ducksalad ([11]; 500 g ai/ha): 0; Plant response rating, Flood, Barnyardgrass ([12]; 500 g ai/ha): 0; Plant response rating, Pigweed ([13]; 125 g ai/ha): 0; Plant response rating, Pigweed ([13]; 500 g ai/ha): 0; Plant response rating, Corn (corn (Zea mays); 125 g ai/ha): 0; Plant response rating, Corn (corn (Zea mays); 500 g ai/ha): 0; Plant response rating, Ragweed ([14]; 125 g ai/ha): 0; Plant response rating, Ragweed ([14]; 500 g ai/ha): 0; Plant response rating, Flood, Sedge, Umbrella ([15]; 500 g ai/ha): 0; Plant response rating, Wheat ([16]; 125 g ai/ha): 0; Plant response rating, Wheat ([16]; 500 g ai/ha): 0; Plant response rating, Barnyardgrass ([17]; 125 g ai/ha): 0; Plant response rating, Barnyardgrass ([17]; 500 g ai/ha): 0; Plant response rating, Barnyardgrass ([18]; 125 g ai/ha): 0; Plant response rating, Barnyardgrass ([18]; 500 g ai/ha): 0 |
| O=C(Nc1cccc(F)c1F)C1C(=O)OCC1c1ccc(C(F)(F)F)cc1 (racemic) [Compound 7] | 0 | 0 | 0 | 0 | 0 | 0 | 0 | 0 | 0 | 0 | 20 | 50 | 0 | 0 | 0 | 0 | 0 | 0 | 30 | 80 | Plant response rating, Flood, Rice (rice (Oryza sativa); 250 g ai/ha): 0; Plant response rating, Flood, Rice (rice (Oryza sativa); 1000 g ai/ha): 0; Plant response rating, Flood, Ducksalad ([11]; 250 g ai/ha): 30; Plant response rating, Flood, Ducksalad ([11]; 1000 g ai/ha): 40; Plant response rating, Flood, Barnyardgrass ([12]; 250 g ai/ha): 0; Plant response rating, Flood, Barnyardgrass ([12]; 1000 g ai/ha): 0; Plant response rating, Pigweed ([13]; 125 g ai/ha): 0; Plant response rating, Pigweed ([13]; 500 g ai/ha): 0; Plant response rating, Corn (corn (Zea mays); 125 g ai/ha): 0; Plant response rating, Corn (corn (Zea mays); 500 g ai/ha): 0; Plant response rating, Ragweed ([14]; 125 g ai/ha): 0; Plant response rating, Ragweed ([14]; 500 g ai/ha): 0; Plant response rating, Flood, Sedge, Umbrella ([15]; 250 g ai/ha): 0; Plant response rating, Flood, Sedge, Umbrella ([15]; 1000 g ai/ha): 0; Plant response rating, Wheat ([16]; 125 g ai/ha): 0; Plant response rating, Wheat ([16]; 500 g ai/ha): 0; Plant response rating, Barnyardgrass ([17]; 125 g ai/ha): 0; Plant response rating, Barnyardgrass ([17]; 500 g ai/ha): 30; Plant response rating, Barnyardgrass ([18]; 125 g ai/ha): 0; Plant response rating, Barnyardgrass ([18]; 500 g ai/ha): 20 |
